Source: patent US20030215817A1, “Modulation of gene expression in formation of fatty atherosclerotic lesions” (priority 2003, published 2003)
Structures can show the parent of a compound that is named as a salt.

What was measured:
Format in all cases: in vivo, rabbit
[1] = tested on: REC1_33 (digital address CCGA 96) mRNA, as1_casein gene; experiment: TOGA analysis, REC1_33
Method: (§1) To perform the studies, New Zealand male rabbits weighing 2.0-2.5 kg (Charles River, Calco, Italy) were used. The rabbits were divided into three groups and maintained in identical experimental conditions: (1) control group (n=15); rabbits fed a cholesterol-rich diet; (2) lercanidipine-treated group (n=15); rabbits fed a cholesterol-rich diet and also treated with lercanidipine (3 mg/kg/week); and (3) (R)-lercanidipine-treated group (n=5); rabbits fed a cholesterol-rich diet and also treated with the (R)-enantiomer of lercanidipine (3 mg/kg/week). After a 2 week period of subcutaneous, once a week, pretreatment with 3 mg/kg/week of lercanidipine or (R)-lercanidipine, the rabbits received a daily cholesterol supplement for up to 8 weeks or 2 weeks, respectively. In the following examples, use of the term “lercanidipine” refers to the racemic mixture of lercanidipine hydrochloride, whereas “(R)-lercanidipine” refers to the (R)-enantiomer of lercanidipine hydrochloride.
(§2) The mRNA from the above-described groups was isolated from aorta at different time points, resulting in the following mRNA samples: (1) Day 0 Control=no administered cholesterol, no lercanidipine; (2) Day 0+lercanidipine=no administered cholesterol, treatment with lercanipidine (2 weeks; 3 mg/kg/week); (3) Day 14 Control=cholesterol diet for two weeks, no lercanidipine; (4) Day 14+lercanidipine=cholesterol diet for two weeks, treatment with lercanidipine (four weeks; 3 mg/kg/week); (5) Week 8 Control=cholesterol diet for 8 weeks, no lercanidipine; and (6) Week 8+lercanidipine=cholesterol diet for 8 weeks, treatment with lercanidipine (10 weeks; 3 mg/kg/week). In addition, Day 14+(R)-lercanidipine mRNA samples were prepared from rabbits given a cholesterol diet for two weeks and treated with 3 mg/kg/week (R)-lercanidipine for four weeks.
(§3) Aorta mRNAs were prepared in the following manner. First, the aortas from each experimental group were retrieved and shredded using a polytron homogenizer. The samples were further homogenized using a teflon pestle, after which the cellular debris, nuclei, and blood cells were pelleted by centrifugation. The supernatants were extracted twice with phenol-chloroform-isoamyl alcohol and once with chloroform-isoamyl alcohol. RNA was then precipitated from the aqueous phase with ethanol. The poly A+ mRNA was prepared using standard methods of polyA selection known in the art (Schriber et al., J. Mol. Biol., 142:93-116 (1980)).
(§4) The isolated mRNA was analyzed using a method of simultaneous sequence-specific identification of mRNAs known as TOGA, described in U.S. Pat. No. 5,459,037 and U.S. Pat. No. 5,807,680, hereby incorporated herein by reference. In a preferred embodiment, the TOGA method further comprised an additional PCR step performed using a mixture of four 5′ PCR primers and cDNA templates prepared from a population of antisense cRNAs. A final PCR step that used a mixture of 256 5′ PCR primers produced PCR products that were cDNA fragments that corresponded to the 3′-region of the starting mRNA population. The produced PCR products were then identified by: (a) the initial 5′ sequence comprising the sequence remainder of the recognition site of the restriction endonuclease used to cut and isolate the 3′ region plus the sequence of the preferably four parsing bases immediately 3′ to the remainder of the recognition site, preferably the sequence of the entire fragment; and (b) the length of the fragment. These two parameters, sequence and fragment length, were used to compare the obtained PCR products to a database of known polynucleotide sequences. Since the length of the obtained PCR products includes known vector sequences at the 5′ and 3′ ends of the insert, the sequence of the insert provided in the sequence listing is shorter than the fragment length that forms part of the digital address.
(§5) The method yields Digital Sequence Tags (DSTs), that is, polynucleotides that are expressed sequence tags of the 3′ end of mRNAs. […]

[2] = tested on: REC1_34 (digital address CGGT 209) mRNA; experiment: TOGA analysis, REC1_34
Method: as §1, §2, §3, §4, §5

[3] = tested on: REC1_37 (digital address TTCA 264) mRNA, ribosomal protein L15; experiment: TOGA analysis, REC1_37
Method: as §1, §2, §3, §4, §5

[4] = tested on: REC1_1 (MspI AAGC 288) mRNA, TYRO protein tyrosine kinase binding p; experiment: TOGA analysis, REC1_1
Method: as §1, §2, §3, §4, §5

[5] = tested on: REC1_22 (digital address TGGG 164) mRNA; experiment: TOGA analysis, REC1_22
Method: as §1, §2, §3, §4, §5

[6] = tested on: REC1_31 (digital address TGCA 210) mRNA, mitochondrial genome; experiment: TOGA analysis, REC1_31
Method: as §1, §2, §3, §4, §5

[7] = tested on: REC1_24 (digital address CCGG 232) mRNA; experiment: TOGA analysis, REC1_24
Method: as §1, §2, §3, §4, §5

[8] = tested on: REC1_7 (MspI CACA 282) mRNA; experiment: TOGA analysis, REC1_7
Method: as §1, §2, §3, §4, §5

[9] = tested on: REC1_28 (digital address CGGT 101) mRNA, calgizzarin; experiment: TOGA analysis, REC1_28
Method: as §1, §2, §3, §4, §5

REC1_17 (TCGT 199) mRNA = experiment: TOGA analysis, REC1_17
Method: as §1, §2, §3
as §4, with “These two parameters, sequence and fragment length, were used to compare the obtained PCR products to a database of known polynucleotide sequences. Since the length of the obtained PCR products includes known vector sequences at the 5′ and 3′ ends of the insert, the sequence of the insert provided in the sequence listing is shorter than the fragment length that forms part of the digital address.” left out

[10] = tested on: REC1_2 (MspI AATC 108) mRNA; experiment: TOGA analysis, REC1_2
Method: as §1, §2, §3
as §4, with “These two parameters, sequence and fragment length, were used to compare the obtained PCR products to a database of known polynucleotide sequences. Since the length of the obtained PCR products includes known vector sequences at the 5′ and 3′ ends of the insert, the sequence of the insert provided in the sequence listing is shorter than the fragment length that forms part of the digital address.” left out

[11] = aorta at day 14 of cholesterol administration, 3 mg/kg/week for 4 weeks
[12] = aorta at day 14 of cholesterol, 3 mg/kg/week for 4 weeks
[13] = aorta at day 14 of cholesterol treatment, 3 mg/kg/week for 4 weeks
[14] = TOGA, hypercholesterolemic plus lercanidipine R (−), eight weeks, H2 (normocholesterolemic)=1.0
[15] = aorta at day 0: no cholesterol, 3 mg/kg/week for 2 weeks
[16] = TOGA, hypercholesterolemic plus lercanidipine racemate, eight weeks, H2 (normocholesterolemic)=1.0
[17] = aorta at day 14 of cholesterol diet, 3 mg/kg/week for 4 weeks

COC(=O)C1=C(C)NC(C)=C(C(=O)OC(C)(C)CN(C)CCC(c2ccccc2)c2ccccc2)[C@@H]1c1cccc([N+](=O)[O-])c1.Cl (single isomer, unassigned) [(R)-lercanidipine]
level of gene expression of REC1_33 (TOGA) [1, 11]: 170 | level of gene expression of REC1_34 (TOGA) [2, 12]: 58 | level of gene expression of REC1_37 (TOGA) [3, 12]: 42 | level of gene expression of REC1_1 (TOGA) [4, 13]: 872 | Relative Abundance Rec1_22, TOGA, D [5, 14]: 0.1 | level of gene expression of REC1_31 (TOGA) [6, 11]: 28 | Relative Abundance Rec1_24, TOGA, D [7, 14]: 0.3 | level of gene expression of REC1_7 (TOGA) [8, 11]: 683 | expression of REC1_28 (TOGA), in words ([9]; aorta of hypercholesterolemic rabbits treated with (R)-lercanidipine): not down-regulated

COC(=O)C1=C(C)NC(C)=C(C(=O)OC(C)(C)CN(C)CCC(c2ccccc2)c2ccccc2)C1c1cccc([N+](=O)[O-])c1 (racemic) [lercanidipine, lercanidipine hydrochloride]
level of gene expression, 8 Week hypercholesterol + Lercanidipine ([1]; REC1_33 CCGA 96, rabbit aorta, 8 weeks cholesterol): 156 | level of gene expression, 14 Day hypercholesterol + Lercanidipine ([1]; REC1_33 CCGA 96, rabbit aorta, 14 days cholesterol): 842 | level of gene expression, Normal + Lercanidipine ([1]; REC1_33 CCGA 96, rabbit aorta, no cholesterol): 1094 | level of gene expression of REC1_33 (TOGA) [1, 15]: 1094 | level of gene expression of REC1_33 (TOGA) [1, 11]: 842 | level of gene expression, 8 Week hypercholesterol + Lercanidipine ([2]; REC1_34 CGGT 209, rabbit aorta, 8 weeks cholesterol): 203 | level of gene expression, 14 Day hypercholesterol + Lercanidipine ([2]; REC1_34 CGGT 209, rabbit aorta, 14 days cholesterol): 331 | level of gene expression, Normal + Lercanidipine ([2]; REC1_34 CGGT 209, rabbit aorta, no cholesterol): 100 | level of gene expression of REC1_34 (TOGA) [2, 15]: 100 | level of gene expression of REC1_34 (TOGA) [2, 12]: 331 | level of gene expression, 8 Week hypercholesterol + Lercanidipine ([3]; REC1_37 TTCA 264, rabbit aorta, cholesterol 8 weeks): 136 | level of gene expression, 14 Day hypercholesterol + Lercanidipine ([3]; REC1_37 TTCA 264, rabbit aorta, cholesterol 14 days): 915 | level of gene expression, Normal + Lercanidipine ([3]; REC1_37 TTCA 264, rabbit aorta, no cholesterol): 605 | level of gene expression of REC1_37 (TOGA) [3, 12]: 915 | level of gene expression of REC1_37 (TOGA) ([3]; aorta at week 8 of cholesterol, 3 mg/kg/week for 10 weeks): 136 | level of gene expression (TOGA), 8 Week hypercholesterol + Lercanidipine ([4]; REC1_1, AAGC 288, rabbit aorta, 8 weeks cholesterol + lercanidipine): 1733 | level of gene expression (TOGA), 14 Day hypercholesterol + Lercanidipine ([4]; REC1_1, AAGC 288, rabbit aorta, 14 days cholesterol + lercanidipine): 753 | level of gene expression (TOGA), Normal + Lercanidipine ([4]; REC1_1, AAGC 288, rabbit aorta, no cholesterol, lercanidipine): 215 | Relative Abundance Rec1_1, TOGA, F [4, 16]: 6.9 | level of gene expression of REC1_1 (TOGA) ([4]; aorta at 8 weeks of cholesterol administration, 3 mg/kg/week for 10 weeks): 1733 | level of gene expression of REC1_1 (TOGA) [4, 15]: 215 | level of gene expression of REC1_1 (TOGA) [4, 13]: 753 | level of gene expression, 8 Week hypercholesterol + Lercanidipine ([5]; REC1_22 TGGG 164, rabbit aorta, cholesterol 8 weeks): 122 | level of gene expression, 14 Day hypercholesterol + Lercanidipine ([5]; REC1_22 TGGG 164, rabbit aorta, cholesterol 14 days): 194 | level of gene expression, Normal + Lercanidipine ([5]; REC1_22 TGGG 164, rabbit aorta, no cholesterol): 87 | level of gene expression of REC1_22 (TOGA) [5, 15]: 87 | level of gene expression of REC1_22 (TOGA) [5, 11]: 194 | level of gene expression (TOGA), 8 Week hypercholesterol + Lercanidipine (REC1_17 (TCGT 199) mRNA; REC1_17 TCGT 199, rabbit aorta, 8 weeks cholesterol, lercanidipine): 262 | level of gene expression (TOGA), 14 Day hypercholesterol + Lercanidipine (REC1_17 (TCGT 199) mRNA; REC1_17 TCGT 199, rabbit aorta, 14 days cholesterol, lercanidipine): 713 | level of gene expression (TOGA), Normal + Lercanidipine (REC1_17 (TCGT 199) mRNA; REC1_17 TCGT 199, rabbit aorta, no cholesterol, lercanidipine): 1434 | Relative Abundance Rec1_17, TOGA, F (REC1_17 (TCGT 199) mRNA; [16]): 0.15 | level of gene expression, 8 Week hypercholesterol + Lercanidipine ([6]; REC1_31 TGCA 210, rabbit aorta, cholesterol 8 weeks): 245 | level of gene expression, 14 Day hypercholesterol + Lercanidipine ([6]; REC1_31 TGCA 210, rabbit aorta, cholesterol 14 days): 619 | level of gene expression, Normal + Lercanidipine ([6]; REC1_31 TGCA 210, rabbit aorta, no cholesterol): 464 | level of gene expression of REC1_31 (TOGA) [6, 15]: 464 | level of gene expression of REC1_31 (TOGA) [6, 11]: 619 | level of gene expression, 8 Week hypercholesterol + Lercanidipine ([7]; REC1_24 CCGG 232, rabbit aorta, 8 weeks cholesterol): 117 | level of gene expression, 14 Day hypercholesterol + Lercanidipine ([7]; REC1_24 CCGG 232, rabbit aorta, 14 days cholesterol): 104 | level of gene expression, Normal + Lercanidipine ([7]; REC1_24 CCGG 232, rabbit aorta, no cholesterol): 122 | level of gene expression of REC1_24 (TOGA) [7, 15]: 122 | level of gene expression of REC1_24 (TOGA) [7, 17]: 104 | level of gene expression (TOGA), 8 Week hypercholesterol + Lercanidipine ([8]; REC1_7, CACA 282, rabbit aorta, 8 weeks cholesterol + lercanidipine): 159 | level of gene expression (TOGA), 14 Day hypercholesterol + Lercanidipine ([8]; REC1_7, CACA 282, rabbit aorta, 14 days cholesterol + lercanidipine): 417 | level of gene expression (TOGA), Normal + Lercanidipine ([8]; REC1_7, CACA 282, rabbit aorta, no cholesterol, lercanidipine): 863 | Relative Abundance Rec1_7, TOGA, F [8, 16]: 0.2 | level of gene expression of REC1_7 (TOGA) [8, 15]: 863 | level of gene expression of REC1_7 (TOGA) [8, 11]: 417 | level of gene expression of REC1_7 (TOGA) ([8]; aorta at week 8 of cholesterol administration, 3 mg/kg/week for 10 weeks): 159 | level of gene expression, 8 Week hypercholesterol + Lercanidipine ([9]; REC1_28 CGGT 101, rabbit aorta, 8 weeks cholesterol): 176 | level of gene expression, 14 Day hypercholesterol + Lercanidipine ([9]; REC1_28 CGGT 101, rabbit aorta, 14 days cholesterol): 189 | level of gene expression, Normal + Lercanidipine ([9]; REC1_28 CGGT 101, rabbit aorta, no cholesterol): 229 | level of gene expression of REC1_28 (TOGA) [9, 15]: 229 | level of gene expression of REC1_28 (TOGA) [9, 17]: 189 | level of gene expression (TOGA), 8 Week hypercholesterol + Lercanidipine ([10]; REC1_2, AATC 108, rabbit aorta, 8 weeks cholesterol + lercanidipine): 1143 | level of gene expression (TOGA), 14 Day hypercholesterol + Lercanidipine ([10]; REC1_2, AATC 108, rabbit aorta, 14 days cholesterol + lercanidipine): 545 | level of gene expression (TOGA), Normal + Lercanidipine ([10]; REC1_2, AATC 108, rabbit aorta, no cholesterol, lercanidipine): 301 | Relative Abundance Rec1_2, TOGA, F [10, 16]: 6.5
